The test system of assay [1] is p21^KRAS protein in HCT116 cells. The assay can be described thus: p21KRAS protein immunoblot, HCT116. The conditions noted are these: IC50 concentration, 72 h; cell line not given. The class given is cell-based, human. The method, then: (a) KRAS mRNA steady-state expression was evaluated by Taqman Real-time RT-PCR using specific Taqman Assays for KRAS and β-Actin for normalization. KRAS mRNA steady-state expression levels were calculated by the ΔΔCt method, using DMSO (vehicle control) for calibration; and (b) KRAS protein steady-state expression evaluated by immunoblot relative to control (DMSO vehicle) Results are expressed as mean ± SEM of at least three independent experiments; *p < 0.05 and §p < 0.01 from DMSO (vehicle control).
In agreement with its reported capacity to accumulate in cytoplasm, bind to UTR1 and UTR2 RNA G4[14][20] and inhibit NRAS translation, TMPyP4 reduced the levels of p21^KRAS by ~75% in HCT116 cells. […]
Samples were homogenized in ice-cold 1:1 solution of buffer A [10 mm Tris•HCl pH 7.6, 5 mm MgCl2, 1.5 mm KOAc, 2 mm dithiothreitol (DTT), and Halt Protease and Phosphatase inhibitor cocktail, EDTA-free (#78445, Thermo Scientific)] and buffer 2X (10 mm Tris•HCl pH 7.6, 1% Nonidet-P40, and Halt Protease and Phosphatase inhibitor cocktail), by vigorous vortexing and incubated on ice for 30 min. […] Protein concentrations were determined using the BioRad protein assay kit according to the manufacturer’s instructions. Steady-state levels of KRAS protein were determined by immunoblot analysis. […] Steady-state protein levels were expressed as mean ±SEM from at least three independent experiments.
(In general: A western blot detects proteins with antibodies after separation by electrophoresis.)

Assay [2] deals with 26ds (ds26) (DNA, duplex) CAATCGGATCGAATTCGATCCGATTG
The assay can be described thus: spectrofluorimetric titration, one-site saturation fit. The conditions noted are these: 60 mM K+; K-cacodylate pH 7.4, 25 °C; 1 μM compound; SD ≤ 0.2 × 10^6.

Consider `CCN(CC)CCCNc1ccc2c(c1)c1[nH]c3ccccc3c1c[n+]2C` [2d], for which the “KRAS protein levels reduced to (% remaining)” value in assay [1] is ~ 50%.

`Cn1cc2c3ccccc3nc-2c2cc(Br)ccc21` [2a, 2-bromo-5-methyl-indolo[3,2-c]quinoline] showed a Ka in assay [2] of 800000 M⁻¹.

Values taken from publication PMC5382548 (Scientific Reports, 2015).
